Test system: Plasmodium falciparum
Test: GSK_TCMDC: Inhibition of Plasmodium falciparum 3D7 in whole erythrocytes, using parasite LDH activity as an index of growth.
Format: functional, organism-based
Details: Plasmodium falciparum, 3D7

Row | Structure (SMILES) | XC50
1 | O=C(Nc1ccc2c(c1)CCC2)c1ccc(N2CCN(c3ccncc3)CC2)cc1 | 1130 nM
2 | CCCC(C)Nc1nc(C)cc(N[C@@H](CC(C)C)C(=O)NCCc2ccccc2)n1 (stereo not given in full) | 1360 nM
3 | CCS(=O)(=O)c1ccc(-c2cnc3[nH]cc(-c4ccc(N)cc4)c3c2)cc1 | 851 nM
4 | N#Cc1ccc(N(CCCO)Cc2ccccc2C(F)(F)F)cc1C(F)(F)F | 978 nM
5 | COc1ccc(-c2nc(NC(=O)CS(=O)(=O)c3ccccc3)sc2C)cc1 | 596 nM
6 | COc1cccc(-c2cnc(N)c(-c3nc4ccc(C(F)(F)F)cc4[nH]3)c2)c1 | 652 nM
7 | CCCc1cc([C@@H](O)[C@@H]2C[C@@H]3CCN2C[C@@H]3CC)c2ccccc2n1 | 433 nM
8 | Clc1ccc2c(NN=Cc3ccccc3)ccnc2c1 | 755 nM
9 | CN1CCN(CC(=O)Nc2cccc(-c3cccc(-c4nc5cc(C(F)(F)F)ccc5[nH]4)c3)c2)CC1 | 372 nM
10 | CC(C)NCc1ccc(-c2ccc(NS(=O)(=O)c3cccc4cccnc34)cc2)cc1 | 807 nM
11 | Cc1ccccc1C1CCN(C2CCC(NC(=O)/C=C/c3cccc(F)c3F)CC2)CC1 (stereo not given) | 1150 nM
12 | O=C(O)c1cccc2c(-c3ccncc3)cccc12 | 937 nM
13 | CCN(CC)CCN(Cc1ccc(-c2ccc(C(F)(F)F)cc2)cc1)C(=O)Cn1c(CCc2ccc(F)cc2)nc(=O)c2sccc21 | 670 nM
14 | O=C(Nc1ccc(Cl)c(C(F)(F)F)c1)c1ccc(Cl)c([N+](=O)[O-])c1 | 1120 nM
15 | Clc1cccc(C=NN=c2cc[nH]c3ccccc23)c1 | 852 nM
16 | O=C(Nc1ccc(Cl)cn1)c1sc2ccccc2c1O | 1040 nM
17 | CCNc1cc(C(=O)N[C@@H](Cc2ccccc2)[C@H](O)CN[C@@H](C)c2cccc(OC)c2)cc(N2CCCC2=O)c1 | 769 nM
18 | CCOC(=O)c1ccc(NC(=O)NCCCC2CCCN(CCCCCNC(=O)/C=C/c3ccc(Cl)c(Cl)c3)C2)cc1 (stereo not given) | 855 nM
19 | Cc1n[nH]c2ccc(-c3ccc4nccc(N5CCC(N)CC5)c4c3)cc12 | 591 nM
20 | CCN(CC)CCON=Cc1cc(C)c2[nH]c3ccc(OCc4ccccc4)cc3c2c1C | 972 nM
21 | COc1ccc(C(=O)Nc2ccc(-c3ccc([N+](=O)[O-])cc3)cc2)cc1CCCN(C)C | 803 nM
22 | O=S(=O)(NCCN1CCCC1)c1ccc(-c2cccc(CNC3Cc4ccccc4C3)c2)s1 | 746 nM
23 | c1ccc2c(NCCCCCCNc3c4ccccc4nc4ccccc34)c3ccccc3nc2c1 | 753 nM
24 | COc1ccc(C(=O)N2CCN(c3ccc([N+](=O)[O-])c(NC4CC4)c3)CC2)cc1Br | 797 nM

Row | Structure (SMILES) | XC50
25 | COC(=O)c1ccc(CC(C)NCC(O)c2cccc3ccccc23)cc1 (stereo not given) | 935 nM
26 | CC(C)c1cccc(C(NC(=O)[C@H]2Cc3ccccc3CN2C(=O)c2cccc(N3CCOCC3)c2)C2CCCC2)c1 (stereo not given in full) | 723 nM
27 | COc1cccc(CCc2ccc(O)c3c2C[C@H]2C[C@H]4[C@H](N(C)C)C(O)=C(C(N)=O)C(=O)[C@@]4(O)C(O)=C2C3=O)c1 | 850 nM
28 | O=C(Nc1ccccc1Cl)c1cc2ccccc2cc1O | 1010 nM
29 | CN1CCC(Oc2ccc(CN3CC[C@H](NC(=O)c4cc(F)cc(F)c4)C3)c3ccccc23)C1 (stereo not given in full) | 841 nM
30 | Cc1cc2ncn(-c3nccc(NCc4ccc(F)cc4)n3)c2cc1C | 886 nM
31 | COc1ccccc1C(=O)Nc1ccc(Nc2nc(C)cc(N(C)C)n2)cc1 | 789 nM
32 | O=C(Nc1ccc(CCNC2=NCCN2)cc1)Nc1ccc(CCNC2=NCCN2)cc1 | 789 nM
33 | CC(=O)Nc1ccc(C(=O)Nc2cccc(-c3ccc(-c4nc5cc(F)ccc5[nH]4)cc3)c2)cn1 | 174 nM
34 | CCC[C@@H]([C@@H](CC1CCCCC1)C(=O)N[C@H](C(=O)Nc1nccs1)C(C)(C)SCCNC(=O)OCc1ccccn1)N(O)C=O | 162 nM
35 | c1ccc(-c2ccc(-c3nc4ccccc4[nH]3)cc2)cc1 | 809 nM
36 | COc1cc2nccc(Nc3cccc(Oc4ccccc4)c3)c2cc1OC | 643 nM
37 | Cc1cc(CNCC2CCC(CNCCCc3ccccc3)CC2)ccc1O (stereo not given) | 871 nM
38 | CCOc1ccc(OCCCON2C(=N)N=C(N)NC2(C)C)cc1 | 3.2 nM
39 | O=C(NCCCCN1CCC(c2c[nH]c3ccccc23)CC1)c1ccc(-c2ccc(C(F)(F)F)cc2)cc1 | 798 nM
40 | COc1ccc(C(=O)Nc2ccc3oc(-c4ccc(C(F)(F)F)cc4)cc3c2)cc1CCCN(C)C | 698 nM
41 | CCS(=O)(=O)Nc1ccc2c(c1)/C(=C(/Nc1ccc(CN3CCCCC3)cc1)c1ccccc1)C(=O)N2 [HESPERADIN] | 56.5 nM
42 | CCn1c(-c2nonc2N)nc2c(-c3cccc(NC(=O)Nc4ccccc4OC)c3)ncc(OCCCN)c21 | 1000 nM
43 | O=C(Cc1ccc(NC(=O)c2ccc(O)c(-c3ccc(Cl)c(Cl)c3)c2)cc1)NCCc1ccc(Cl)c(Cl)c1 | 717 nM
44 | CN1CCN(c2cc3c(cc2Cl)CCN3C(=O)Nc2ccc(NC(=O)c3ccc(C(F)(F)F)cc3)cc2)CC1 | 515 nM
45 | CN(C)c1ccc(-c2nc3cc(N)ccc3[nH]2)cc1 | 239 nM
46 | CN1CCC(NCc2cccc(-c3ccc(S(=O)(=O)NCc4ccccc4)c(F)c3)c2)CC1 | 325 nM
47 | COc1ccc2nccc(NC(=O)N3CCC(NCc4cc5ccccc5[nH]4)CC3)c2n1 | 556 nM
48 | CN(C)CCN(Cc1ccc(-c2ccc(CNCCc3ccccc3)cc2)nc1)C(=O)CCC1CCCC1 | 799 nM

Row | Structure (SMILES) | XC50
49 | COc1ccc2c(C)cc(NCCCN(C)C)nc2c1 | 1100 nM
50 | O=C(c1cccs1)N(Cc1cccc(-c2ccc(CNC3CCCC3)cc2)c1)C1CCN(Cc2ccccc2)CC1 | 1130 nM
51 | CCCn1c(Sc2ccc(C#N)c([N+](=O)[O-])c2)nnc1-c1ccc(N(C)C)cc1 | 125 nM
52 | O=[N+]([O-])c1ccc(Oc2c(Cl)cc(S(=O)(=O)NC3CCC(CN4CCC(c5c[nH]c6ccccc56)CC4)CC3)cc2Cl)c(Cl)c1 (stereo not given) | 758 nM
53 | O=[N+]([O-])c1cccc(CNCC2CCN(Cc3ccc(-c4ccccc4)cc3)CC2)c1 | 248 nM
54 | Oc1ccc2ccccc2c1CNCC1CCCCC1 | 667 nM
55 | OCCN1CCN(Cc2cccc(-c3ccc(-c4nc5cc(C(F)(F)F)ccc5[nH]4)cc3)c2)CC1 | 559 nM
56 | CN(CCCNC(=S)NC12CC3CC(CC(C3)C1)C2)CCCNc1ccnc2cc(Cl)ccc12 | 121 nM
57 | COc1cc(Nc2ncc3c(C)nc(-c4cccc(Nc5ccc(CN6CCS(=O)(=O)CC6)cc5)c4)n3n2)cc(OC)c1OC | 865 nM
58 | Cc1[nH]c(C)c(-c2ccc(-c3ccccc3C(F)(F)F)nc2)c(=O)c1Br | 168 nM
59 | COc1ccc(Cn2c(N3CCN(S(=O)(=O)c4ccc(OC)cc4)CC3)nc3c2c(=O)n(CC2CC2)c(=O)n3CC2CC2)cc1 | 892 nM
60 | CC(=O)NCCNc1nccc(N2CCc3ncnc(Nc4ccc(OCc5ccccn5)c(Cl)c4)c3C2)n1 | 822 nM
61 | O=C(Cc1ccc(Cl)cc1)Nc1cc(Cl)ccc1Cn1cnc(N2CCNCC2)cc1=O | 998 nM
62 | Nc1nc(N)c2c3c(ccc2n1)NCCC3 | 734 nM
63 | O=C(Nc1ccc(Cl)c(Cl)c1)N1CCC(CN2CCC(c3c[nH]c4ccccc34)CC2)CC1 | 295 nM
64 | CCn1c(SCC(=O)Nc2cc(C(F)(F)F)ccc2Cl)nc2ccccc2c1=O | 397 nM
65 | OCCOCCNCc1cccc(C#Cc2cc3ncnc(Nc4ccc(OCc5cccc(F)c5)c(Cl)c4)c3s2)n1 | 781 nM
66 | Oc1cccc(/C=N/Nc2ccnc3cc(Cl)ccc23)c1 | 728 nM
67 | CC(C)c1ccc(CN2CCCCC(NC(=O)c3cc(-c4cccc(F)c4)cs3)C2)cc1 (stereo not given) | 945 nM
68 | O=C(Nc1ccc(Cl)c(Cl)c1)N1CCc2ccc(OCCCN3CCCCC3)cc2CC1 | 1520 nM
69 | O=C(N[C@@H](Cc1ccccc1)C(=O)NCCN1CCOCC1)c1ccc(O)c(-c2ccc(Cl)c(Cl)c2)c1 | 921 nM
70 | O=C(Nc1cccc(F)c1)NC1CCN(CCCCCNC(=O)C2CC2c2ccc(Cl)c(Cl)c2)CC1 (stereo not given) | 763 nM
71 | CC(C)(C)N1CCC(N(Cc2ccc(-c3ccc(C(F)(F)F)cc3)cc2)C(=O)Cn2c(CCc3cccc(F)c3F)cc(=O)c3ccccc32)CC1 | 789 nM
72 | Cc1ccc(NC(=O)c2ccc(N3CCN(c4ccncc4)CC3)cc2)cc1F | 736 nM

Row | Structure (SMILES) | XC50
73 | CC(=O)N(Cc1cccc(-c2cccc(CNCCc3ccccc3)c2)c1)C1CCN(Cc2ccccc2)CC1 | 670 nM
74 | NC(=O)c1ccc(NC(=O)CN(Cc2ccc(Cl)cc2)S(=O)(=O)c2ccccc2)cc1 | 653 nM
75 | NCCNc1ccc([N+](=O)[O-])cc1C(=O)Nc1cccc(C(F)(F)F)c1 | 905 nM
76 | Cc1ccc(-c2cnc(N)c3cc(-c4ccnc(N)n4)ccc23)cc1 | 808 nM
77 | COc1cncc(/C=C/c2cncc(C(=O)NCCc3ccc(Cl)cc3Cl)c2)c1 | 879 nM
78 | CCCCN(C(=O)c1ccccc1C)c1nnc(-c2ccccc2C)s1 | 927 nM
79 | COc1ccc(C)cc1NC(=O)CSc1nc2cccnc2n1C1CCCCC1 | 544 nM
80 | CSC1=NC(C)(C)CC2(CC(c3cccc(C)c3)c3cc(Cl)c(O)cc3O2)N1 (stereo not given) | 879 nM
81 | Cc1cccc2nc(-c3ccc(-c4ccc(NC(=O)Nc5ccc(Cl)cc5)cc4)cc3)[nH]c12 | 100 nM
82 | O=C(/C=C/c1ccc(Cl)c(Cl)c1)NC1CCC(CN2CCC(c3c[nH]c4ccncc34)CC2)CC1 (stereo not given) | 398 nM
83 | Cc1cccc(Nc2nc(N)c3ccccc3n2)c1 | 574 nM
84 | Cc1cc(N[C@@H](Cc2ccccc2)C(=O)Nc2ccccc2)nc(Nc2ccccc2)n1 | 1010 nM
85 | CN(C)c1ccc(CN2CCC(NC(=O)c3ccc(-c4cccc(C(F)(F)F)c4)s3)CC2)cc1 | 1150 nM
86 | N#Cc1ccc(-c2ccc(C(=O)NCCCCN3CCC(c4ccc5c(c4OCc4ccncc4)CCCC5)CC3)cc2)cc1 | 757 nM
87 | COc1ccc(CN2CCCN(Cc3ccc(C(=O)Nc4ccc(Cl)cc4)cc3)CC2)cc1 | 919 nM
88 | O=C(c1cnn(-c2ccccc2)c1C(F)(F)F)N1CCN(c2ccnc3cc(Cl)ccc23)CC1 | 532 nM
89 | Oc1ccc(CCNc2nc(NCc3ccc4cc(Cl)ccc4c3)nc(N3CCNCC3)n2)cc1 | 1020 nM
90 | COc1ccc(CNC(=O)c2cc3c(=O)n4ccccc4nc3n(CCc3ccccc3)c2=N)cc1 | 330 nM
91 | CCc1nc(N)nc(N)c1-c1ccc(F)c(F)c1 | 417 nM
92 | CCN(CC)CCN(Cc1ccc(-c2ccc(C(F)(F)F)cc2)cc1)C(=O)Cn1c(CCc2cccc(F)c2F)cc(=O)cc1-c1ccccc1 | 778 nM
93 | CN1CCC(C(=O)Nc2ccc(-c3ccc(-c4nc5cc(C(F)(F)F)ccc5[nH]4)s3)cc2)CC1 | 987 nM
94 | Cn1cc(CN2CCC(CCOC(c3ccccc3)c3ccccc3)CC2)cn1 | 259 nM
95 | CC(=O)N1CCC(C(=O)Nc2ccc(-c3cccc(-c4nc5cc(C(F)(F)F)ccc5[nH]4)c3)cc2)CC1 | 239 nM
